# Measured values taken from US20170190671A1, “BIS(ARYL)CATECHOL DERIVATIVES AS HERBICIDES” (E I DU PONT DE NEMOURS AND COMPANY, priority 2014, published 2017).
# Assays:
# Assay in all cases: Test C postemergence
# Format in all cases: in vivo
# wild oat (Avena fatua) = settings: Avena fatua, post-emergence, Postemergence, scale 0 to 100, read-out: Plant response rating, Oat, Wild
# [1] = test system: giant foxtail (Setaria faberii); settings: Setaria faberi, post-emergence, 336 h, Postemergence, scale 0 to 100, read-out: Plant response rating, Foxtail, Giant
# kochia (Kochia scoparia) = settings: Bassia scoparia, post-emergence, Postemergence, scale 0 to 100, read-out: Plant response rating, Kochia
# [2] = test system: chickweed (common chickweed, Stellaria media); settings: Stellaria media, post-emergence, Postemergence, scale 0 to 100, read-out: Plant response rating, Chickweed
# [3] = test system: pigweed (Amaranthus retroflexus); settings: Amaranthus retroflexus, post-emergence, 336 h, Postemergence, scale 0 to 100, read-out: Plant response rating, Pigweed
# [4] = test system: blackgrass (Alopecurus myosuroides); settings: Alopecurus myosuroides, post-emergence, 336 h, Postemergence, scale 0 to 100, read-out: Plant response rating, Blackgrass
# [5] = test system: oilseed rape (Brassica napus); settings: Brassica napus, post-emergence, Postemergence, scale 0 to 100, read-out: Plant response rating, Oilseed Rape
# [6] = test system: yellow nutsedge (Cyperus esculentus); settings: Cyperus, post-emergence, 336 h, Postemergence, scale 0 to 100, read-out: Plant response rating, Nutsedge, Yellow
# [7] = test system: velvetleaf (Abutilon theophrasti); settings: Abutilon theophrasti, post-emergence, Postemergence, scale 0 to 100, read-out: Plant response rating, Velvetleaf
# [8] = test system: winter wheat (Triticum aestivum); settings: Triticum aestivum, post-emergence, 336 h, Postemergence, scale 0 to 100, read-out: Plant response rating, Wheat
# [9] = test system: johnsongrass (Sorghum halepense); settings: Sorghum halepense, post-emergence, 336 h, Postemergence, scale 0 to 100, read-out: Plant response rating, Johnsongrass
# [10] = test system: morningglory (Ipomoea coccinea); settings: Ipomoea, post-emergence, 336 h, Postemergence, scale 0 to 100, read-out: Plant response rating, Morningglory
# [11] = test system: Italian ryegrass (Lolium multiflorum); settings: Lolium multiflorum, post-emergence, 336 h, Postemergence, scale 0 to 100, read-out: Plant response rating, Ryegrass, Italian
# [12] = test system: barnyardgrass (Echinochloa crus-galli); settings: Echinochloa crus-galli, post-emergence, Postemergence, scale 0 to 100, read-out: Plant response rating, Barnyardgrass
# [13] = test system: large (Lg) crabgrass (Digitaria sanguinalis); settings: Digitaria sanguinalis, post-emergence, 336 h, Postemergence, scale 0 to 100, read-out: Plant response rating, Crabgrass, Large
smiles,measurement,setting,value
N#Cc1cccc(Oc2ncc(Cl)cn2)c1Oc1ccc(Cl)cc1 [Compound 36],pest or weed control at 31 g/ha,wild oat (Avena fatua); 31 g ai/ha,30%
same,pest or weed control at 62 g/ha,wild oat (Avena fatua); 62 g ai/ha,20%
same,pest or weed control at 125 g/ha,wild oat (Avena fatua); 125 g ai/ha,35%
same,pest or weed control at 16 g/ha,[1]; 16 g ai/ha,5%
same,pest or weed control at 31 g/ha,[1]; 31 g ai/ha,5%
same,pest or weed control at 62 g/ha,[1]; 62 g ai/ha,10%
same,pest or weed control at 125 g/ha,[1]; 125 g ai/ha,10%
same,pest or weed control at 16 g/ha,kochia (Kochia scoparia); 16 g ai/ha,90%
same,pest or weed control at 31 g/ha,kochia (Kochia scoparia); 31 g ai/ha,95%
same,pest or weed control at 62 g/ha,kochia (Kochia scoparia); 62 g ai/ha,95%
same,pest or weed control at 125 g/ha,kochia (Kochia scoparia); 125 g ai/ha,100%
same,pest or weed control at 16 g/ha,[2]; 16 g ai/ha,70%
same,pest or weed control at 31 g/ha,[2]; 31 g ai/ha,75%
same,pest or weed control at 62 g/ha,[2]; 62 g ai/ha,80%
same,pest or weed control at 125 g/ha,[2]; 125 g ai/ha,100%
same,pest or weed control at 31 g/ha,[3]; 31 g ai/ha,90%
same,pest or weed control at 62 g/ha,[3]; 62 g ai/ha,98%
same,pest or weed control at 125 g/ha,[3]; 125 g ai/ha,100%
same,pest or weed control at 16 g/ha,[4]; 16 g ai/ha,5%
same,pest or weed control at 31 g/ha,[4]; 31 g ai/ha,5%
same,pest or weed control at 62 g/ha,[4]; 62 g ai/ha,30%
same,pest or weed control at 125 g/ha,[4]; 125 g ai/ha,30%
same,plant injury at 31 g/ha,[5]; 31 g ai/ha,85%
same,plant injury at 62 g/ha,[5]; 62 g ai/ha,90%
same,plant injury at 125 g/ha,[5]; 125 g ai/ha,98%
same,pest or weed control at 31 g/ha,[6]; 31 g ai/ha,5%
same,pest or weed control at 62 g/ha,[6]; 62 g ai/ha,10%
same,pest or weed control at 125 g/ha,[6]; 125 g ai/ha,15%
same,pest or weed control at 31 g/ha,[7]; 31 g ai/ha,45%
same,pest or weed control at 62 g/ha,[7]; 62 g ai/ha,70%
same,pest or weed control at 125 g/ha,[7]; 125 g ai/ha,80%
same,plant injury at 31 g/ha,[8]; 31 g ai/ha,0%
same,plant injury at 62 g/ha,[8]; 62 g ai/ha,0%
same,plant injury at 125 g/ha,[8]; 125 g ai/ha,5%
same,pest or weed control at 16 g/ha,[9]; 16 g ai/ha,20%
same,pest or weed control at 31 g/ha,[9]; 31 g ai/ha,30%
same,pest or weed control at 62 g/ha,[9]; 62 g ai/ha,35%
same,pest or weed control at 125 g/ha,[9]; 125 g ai/ha,35%
same,pest or weed control at 31 g/ha,[10]; 31 g ai/ha,60%
same,pest or weed control at 62 g/ha,[10]; 62 g ai/ha,65%
same,pest or weed control at 125 g/ha,[10]; 125 g ai/ha,70%
same,pest or weed control at 31 g/ha,[11]; 31 g ai/ha,5%
same,pest or weed control at 62 g/ha,[11]; 62 g ai/ha,10%
same,pest or weed control at 125 g/ha,[11]; 125 g ai/ha,30%
same,pest or weed control at 16 g/ha,[12]; 16 g ai/ha,10%
same,pest or weed control at 31 g/ha,[12]; 31 g ai/ha,10%
same,pest or weed control at 62 g/ha,[12]; 62 g ai/ha,15%
same,pest or weed control at 125 g/ha,[12]; 125 g ai/ha,20%
same,pest or weed control at 16 g/ha,[13]; 16 g ai/ha,5%
same,pest or weed control at 31 g/ha,[13]; 31 g ai/ha,10%
same,pest or weed control at 62 g/ha,[13]; 62 g ai/ha,10%
same,pest or weed control at 125 g/ha,[13]; 125 g ai/ha,20%
